# Literature values as cited in patent publication US10563162B2, “Microbial electro-photosynthesis” (Arizona Board of Regents on behalf of Arizona State …, priority 2014, dated 2020).
# Conditions: listed property of redox mediator / natural electron acceptor; no method given
Compound,"midpoint potential (E^0,) [mV]",number of electrons transported (# e−)
Thionine,64,2
O=C1C=CC(=O)C=C1 [Benzoquinone],280,2
CC1=C(C)C(=O)C(C)=C(C)C1=O [Duroquinone],5,2
CN(C)c1ccc2nc3ccc(=[N+](C)C)cc-3sc2c1 [Methylene Blue],11,2
CC(C)=CCC/C(C)=C/CC/C(C)=C/CC/C(C)=C/CC/C(C)=C/CC/C(C)=C/CC/C(C)=C/CC/C(C)=C/CC/C(C)=C/CC1=CC(=O)C(C)=C(C)C1=O [Plastoquinone],80,2
